From the CheMixHub drug solubility set

Test: xn = mol fraction of the nth substance listed, in the solute-free solvent

CC(=O)Nc1ccc(OC(=O)c2ccccc2OC(C)=O)cc1 + CN1CCCC1=O + O
solubility (g/100 g solution)
Conditions | 278.15 K | 283.15 K | 288.15 K | 293.15 K | 298.15 K | 303.15 K | 308.15 K | 313.15 K | 318.15 K
x2 = 0.0198 | 0.0101 | 0.0143 | 0.02 | 0.0278 | 0.0388 | 0.0522 | 0.0688 | 0.0923 | 0.122
x2 = 0.04347 | 0.0672 | 0.0901 | 0.121 | 0.159 | 0.209 | 0.268 | 0.349 | 0.446 | 0.569
x2 = 0.07228 | 0.275 | 0.355 | 0.448 | 0.581 | 0.725 | 0.903 | 1.13 | 1.39 | 1.7
x2 = 0.1081 | 0.8 | 0.998 | 1.25 | 1.51 | 1.85 | 2.22 | 2.69 | 3.19 | 3.81
x2 = 0.1538 | 1.62 | 1.95 | 2.37 | 2.85 | 3.4 | 4.01 | 4.67 | 5.48 | 6.35
x2 = 0.2143 | 2.87 | 3.37 | 3.94 | 4.63 | 5.38 | 6.15 | 7.12 | 8.13 | 9.18
x2 = 0.2979 | 4.29 | 4.95 | 5.76 | 6.59 | 7.51 | 8.56 | 9.7 | 10.8 | 12.1
x2 = 0.421 | 5.72 | 6.53 | 7.43 | 8.43 | 9.49 | 10.7 | 11.8 | 13.2 | 14.5
x2 = 0.6207 | 6.55 | 7.48 | 8.44 | 9.55 | 10.7 | 11.9 | 13.3 | 14.7 | 16.1

O=c1[nH]cc(F)c(=O)[nH]1 + CN(C)C=O + C1CCOC1
solubility (g/100 g solution)
Conditions | 283.15 K | 288.15 K | 293.15 K | 298.15 K | 303.15 K | 308.15 K | 313.15 K | 318.15 K | 323.15 K
x2 = 0.1978 | 0.137 | 0.174 | 0.209 | 0.264 | 0.33 | 0.423 | 0.551 | 0.66 | 0.816
x2 = 0.3967 | 0.188 | 0.24 | 0.293 | 0.37 | 0.468 | 0.581 | 0.735 | 0.883 | 1.07
x2 = 0.5967 | 0.283 | 0.352 | 0.434 | 0.533 | 0.653 | 0.814 | 1.01 | 1.24 | 1.51
x2 = 0.7978 | 0.461 | 0.564 | 0.685 | 0.829 | 0.996 | 1.23 | 1.51 | 1.84 | 2.23

CC(=O)Nc1ccc(OC(=O)c2ccccc2OC(C)=O)cc1 + CN(C)C=O + O
solubility (g/100 g solution)
Conditions | 278.15 K | 283.15 K | 288.15 K | 293.15 K | 298.15 K | 303.15 K | 308.15 K | 313.15 K | 318.15 K
x2 = 0.02666 | 0.00846 | 0.0119 | 0.016 | 0.0222 | 0.0297 | 0.0399 | 0.0526 | 0.0698 | 0.0891
x2 = 0.05806 | 0.0473 | 0.0628 | 0.084 | 0.109 | 0.141 | 0.18 | 0.232 | 0.291 | 0.365
x2 = 0.09556 | 0.235 | 0.295 | 0.376 | 0.471 | 0.571 | 0.703 | 0.866 | 1.05 | 1.27
x2 = 0.1412 | 0.633 | 0.777 | 0.947 | 1.16 | 1.39 | 1.68 | 1.97 | 2.35 | 2.77
x2 = 0.1978 | 1.3 | 1.55 | 1.82 | 2.17 | 2.52 | 2.94 | 3.41 | 3.9 | 4.5
x2 = 0.27 | 2.25 | 2.63 | 3.06 | 3.49 | 4.01 | 4.6 | 5.22 | 5.91 | 6.7
x2 = 0.3652 | 3.47 | 3.96 | 4.51 | 5.08 | 5.72 | 6.42 | 7.14 | 7.91 | 8.74
x2 = 0.4965 | 4.8 | 5.32 | 5.97 | 6.58 | 7.24 | 7.99 | 8.71 | 9.48 | 10.3
x2 = 0.6893 | 6.08 | 6.62 | 7.2 | 7.86 | 8.46 | 9.14 | 9.88 | 10.5 | 11.3

O=c1[nH]cc(F)c(=O)[nH]1 + CO + C1CCOC1
solubility (g/100 g solution)
Conditions | 283.15 K | 288.15 K | 293.15 K | 298.15 K | 303.15 K | 308.15 K | 313.15 K | 318.15 K | 323.15 K
x2 = 0.36 | 0.152 | 0.171 | 0.193 | 0.219 | 0.254 | 0.294 | 0.348 | 0.403 | 0.473
x2 = 0.6 | 0.283 | 0.317 | 0.356 | 0.407 | 0.472 | 0.546 | 0.639 | 0.745 | 0.862
x2 = 0.7714 | 0.423 | 0.483 | 0.552 | 0.636 | 0.73 | 0.876 | 1.04 | 1.23 | 1.42
x2 = 0.9 | 0.58 | 0.665 | 0.789 | 0.914 | 1.05 | 1.25 | 1.43 | 1.65 | 1.85

O=C1NS(=O)(=O)c2ccccc21 + CO + CC#N
solubility (g/100 g solution)
Conditions | x2 = 0.1002 | x2 = 0.2003 | x2 = 0.2998 | x2 = 0.4002 | x2 = 0.4998 | x2 = 0.6003 | x2 = 0.7001 | x2 = 0.7995 | x2 = 0.9003
293.15 K | 5.52 | 7.2 | 8.84 | 9.66 | 10 | 10.1 | 9.63 | 8.67 | 7.25
298.15 K | 5.88 | 7.96 | 9.73 | 10.6 | 11 | 11.1 | 10.6 | 9.56 | 8.07
303.15 K | 6.65 | 9.04 | 10.9 | 11.9 | 12.5 | 12.5 | 12.1 | 11 | 9.1
308.15 K | 7.35 | 9.93 | 12.1 | 13.2 | 13.8 | 14 | 13.6 | 12.1 | 10.1
313.15 K | 8.31 | 11.2 | 13.3 | 14.7 | 15.4 | 15.6 | 15.1 | 13.9 | 11.7
318.15 K | 9.32 | 12.7 | 15.2 | 16.8 | 17.6 | 17.7 | 17.2 | 15.8 | 13.3
323.15 K | 10.6 | 14.1 | 16.7 | 18.4 | 19.3 | 19.6 | 19.1 | 17.6 | 15.1

CC1(C)SC2C(NC(=O)C(NC(=O)N3CCNC3=O)c3ccccc3)C(=O)N2C1C(=O)O (configuration not stated) + CO + CC(C)O
solubility (g/100 g solution)
Conditions | 278.15 K | 283.15 K | 288.15 K | 293.15 K | 298.15 K | 303.15 K | 308.15 K | 313.15 K | 318.15 K | 323.15 K
x2 = 0.1 | 0.0982 | 0.114 | 0.133 | 0.163 | 0.195 | 0.225 | 0.276 | 0.333 | 0.411 | 0.503
x2 = 0.199 | 0.115 | 0.133 | 0.155 | 0.196 | 0.228 | 0.289 | 0.344 | 0.425 | 0.516 | 0.639
x2 = 0.3 | 0.139 | 0.156 | 0.188 | 0.229 | 0.277 | 0.331 | 0.4 | 0.501 | 0.611 | 0.735
x2 = 0.4 | 0.156 | 0.173 | 0.202 | 0.247 | 0.299 | 0.361 | 0.455 | 0.551 | 0.673 | 0.832
x2 = 0.497 | 0.165 | 0.186 | 0.227 | 0.266 | 0.323 | 0.394 | 0.504 | 0.618 | 0.749 | 0.926
x2 = 0.6 | 0.186 | 0.22 | 0.255 | 0.298 | 0.374 | 0.448 | 0.55 | 0.678 | 0.811 | 0.994
x2 = 0.7 | 0.215 | 0.243 | 0.295 | 0.353 | 0.42 | 0.494 | 0.625 | 0.742 | 0.889 | 1.13
x2 = 0.8 | 0.251 | 0.297 | 0.35 | 0.43 | 0.49 | 0.584 | 0.732 | 0.868 | 1.09 | 1.34
x2 = 0.9 | 0.297 | 0.368 | 0.427 | 0.507 | 0.602 | 0.722 | 0.92 | 1.14 | 1.37 | 1.68
